According to US20230219904A1 (SYNGENTA CROP PROTECTION AG, priority 2020, published 2023):

Columns and labels:
Type in all cases: in vivo
Settings in all cases: evaluated after 13 days
[1] = test system: Ipomoea hederacea (IPOHE); test: Post-emergence herbicidal glasshouse test (Table B1)
Method in brief: (§1)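 Spraying at 500 g/h unless indicated occurs either one day after sowing (pre-emergence) or after 8 days of cultivation (post-emergence). Percentage damage is then assessed after 13 days and binned as 5=80-100%, 4=60-79%, 3=40-59%, 2=20-39%, 1=0-19%.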

[2] = test system: Setaria faberi (SETFA); test: as above
Method in brief: as §1

[3] = test system: Amaranthus retoflexus (AMARE); test: as above
Method in brief: as §1

[4] = test system: Echinochloa crus-galh (ECHCG); test: as above
Method in brief: as §1

[5] = test system: Abutilon theophrasti (ABUTH); test: as above
Method in brief: as §1

[6] = test system: Ipomoea hederacea (IPOHE); test: Pre-emergence herbicidal glasshouse test (Table B1)
Method in brief: as §1

[7] = test system: Setaria faberi (SETFA); test: as above
Method in brief: as §1

[8] = test system: Amaranthus retoflexus (AMARE); test: as above
Method in brief: as §1

[9] = test system: Echinochloa crus-galh (ECHCG); test: as above
Method in brief: as §1

[10] = test system: Abutilon theophrasti (ABUTH); test: as above
Method in brief: as §1

Row | SMILES | POST Application IPOHE, percentage damage on five-point scale ([1]; applied at 125 g/ha) | POST Application SETFA, percentage damage on five-point scale ([2]; applied at 125 g/ha) | POST Application AMARE, percentage damage on five-point scale ([3]; applied at 125 g/ha) | POST Application ECHCG, percentage damage on five-point scale ([4]; applied at 125 g/ha) | POST Application ABUTH, percentage damage on five-point scale ([5]; applied at 125 g/ha) | PRE Application IPOHE, percentage damage on five-point scale ([6]; applied at 125 g/ha) | PRE Application SETFA, percentage damage on five-point scale ([7]; applied at 125 g/ha) | PRE Application AMARE, percentage damage on five-point scale ([8]; applied at 125 g/ha) | PRE Application ECHCG, percentage damage on five-point scale ([9]; applied at 125 g/ha) | PRE Application ABUTH, percentage damage on five-point scale ([10]; applied at 125 g/ha) | POST Application IPOHE, percentage damage on five-point scale ([1]; applied at 500 g/h) | POST Application SETFA, percentage damage on five-point scale ([2]; applied at 500 g/h) | POST Application AMARE, percentage damage on five-point scale ([3]; applied at 500 g/h) | POST Application ECHCG, percentage damage on five-point scale ([4]; applied at 500 g/h) | POST Application ABUTH, percentage damage on five-point scale ([5]; applied at 500 g/h) | PRE Application IPOHE, percentage damage on five-point scale ([6]; applied) | PRE Application SETFA, percentage damage on five-point scale ([7]; applied at 500 g/h) | PRE Application AMARE, percentage damage on five-point scale ([8]; applied at 500 g/h) | PRE Application ECHCG, percentage damage on five-point scale ([9]; applied at 500 g/h) | PRE Application ABUTH, percentage damage on five-point scale ([10]; applied at 500 g/h)
1 | COC(C)C(=O)Nc1c(OC(F)(F)F)ccc(C(=O)Nc2nnnn2C)c1Cl (stereo not shown) [Compound 1.063] | 4 (4=60-79%) | 5 (5=80-100%) | 5 (5=80-100%) | 5 (5=80-100%) | 5 (5=80-100%) | 5 (5=80-100%) | 5 (5=80-100%) | 5 (5=80-100%) | 5 (5=80-100%) | 5 (5=80-100%) | – | – | – | – | – | – | – | – | – | –
2 | CCn1nnnc1NC(=O)c1ccc(OC(F)(F)F)c(NC(=O)COC)c1Cl [Compound 1.116] | – | – | – | – | – | – | – | – | – | – | 5 (5=80-100%) | 5 (5=80-100%) | 5 (5=80-100%) | 5 (5=80-100%) | 5 (5=80-100%) | 1 (1=0-19%) | 1 (1=0-19%) | 5 (5=80-100%) | 3 (3=40-59%) | 5 (5=80-100%)
3 | Cn1nnnc1NC(=O)c1ccc(OC(F)(F)F)c(NC(=O)C(C)(C)C)c1Cl [Compound 1.107] | – | – | – | – | – | – | – | – | – | – | 5 (5=80-100%) | 5 (5=80-100%) | 5 (5=80-100%) | 5 (5=80-100%) | 5 (5=80-100%) | 4 (4=60-79%) | 5 (5=80-100%) | 5 (5=80-100%) | 5 (5=80-100%) | 5 (5=80-100%)
4 | Cn1nnnc1NC(=O)c1ccc(OC(F)F)c(NC(=O)C2CC2)c1Cl [Compound 1.019] | 5 (5=80-100%) | 5 (5=80-100%) | 5 (5=80-100%) | 5 (5=80-100%) | 5 (5=80-100%) | 5 (5=80-100%) | 5 (5=80-100%) | 5 (5=80-100%) | 5 (5=80-100%) | 5 (5=80-100%) | – | – | – | – | – | – | – | – | – | –
5 | Cc1c(C(=O)Nc2c(OC(F)F)ccc(C(=O)Nc3nnnn3C)c2Cl)nn(C)c1C [Compound 1.098] | 4 (4=60-79%) | 4 (4=60-79%) | 4 (4=60-79%) | 4 (4=60-79%) | 4 (4=60-79%) | 4 (4=60-79%) | 4 (4=60-79%) | 3 (3=40-59%) | 1 (1=0-19%) | 4 (4=60-79%) | – | – | – | – | – | – | – | – | – | –
6 | Cc1nnc(NC(=O)c2ccc(OC(F)(F)F)c(NC(=O)C3CC3)c2Cl)o1 [Compound 1.115] | 4 (4=60-79%) | 4 (4=60-79%) | 3 (3=40-59%) | 4 (4=60-79%) | 4 (4=60-79%) | 2 (2=20-39%) | 4 (4=60-79%) | 4 (4=60-79%) | 5 (5=80-100%) | 4 (4=60-79%) | – | – | – | – | – | – | – | – | – | –
7 | CC(F)C(=O)Nc1c(OC(F)F)ccc(C(=O)Nc2nnnn2C)c1Cl (stereo not shown) [Compound 1.025] | 2 (2=20-39%) | 4 (4=60-79%) | 5 (5=80-100%) | 5 (5=80-100%) | 4 (4=60-79%) | 4 (4=60-79%) | 3 (3=40-59%) | 5 (5=80-100%) | 3 (3=40-59%) | 5 (5=80-100%) | – | – | – | – | – | – | – | – | – | –
